From patent publication US11952587B2, “Method for producing platelets” (KYOTO UNIVERSITY, priority 2017, dated 2024)

Columns and labels:
HDAC6 = biological target: T1, HDAC6 (Homo sapiens, UniProt Q9UBN7); conditions: cited from earlier work
T1 sequence (Q9UBN7 1-1215): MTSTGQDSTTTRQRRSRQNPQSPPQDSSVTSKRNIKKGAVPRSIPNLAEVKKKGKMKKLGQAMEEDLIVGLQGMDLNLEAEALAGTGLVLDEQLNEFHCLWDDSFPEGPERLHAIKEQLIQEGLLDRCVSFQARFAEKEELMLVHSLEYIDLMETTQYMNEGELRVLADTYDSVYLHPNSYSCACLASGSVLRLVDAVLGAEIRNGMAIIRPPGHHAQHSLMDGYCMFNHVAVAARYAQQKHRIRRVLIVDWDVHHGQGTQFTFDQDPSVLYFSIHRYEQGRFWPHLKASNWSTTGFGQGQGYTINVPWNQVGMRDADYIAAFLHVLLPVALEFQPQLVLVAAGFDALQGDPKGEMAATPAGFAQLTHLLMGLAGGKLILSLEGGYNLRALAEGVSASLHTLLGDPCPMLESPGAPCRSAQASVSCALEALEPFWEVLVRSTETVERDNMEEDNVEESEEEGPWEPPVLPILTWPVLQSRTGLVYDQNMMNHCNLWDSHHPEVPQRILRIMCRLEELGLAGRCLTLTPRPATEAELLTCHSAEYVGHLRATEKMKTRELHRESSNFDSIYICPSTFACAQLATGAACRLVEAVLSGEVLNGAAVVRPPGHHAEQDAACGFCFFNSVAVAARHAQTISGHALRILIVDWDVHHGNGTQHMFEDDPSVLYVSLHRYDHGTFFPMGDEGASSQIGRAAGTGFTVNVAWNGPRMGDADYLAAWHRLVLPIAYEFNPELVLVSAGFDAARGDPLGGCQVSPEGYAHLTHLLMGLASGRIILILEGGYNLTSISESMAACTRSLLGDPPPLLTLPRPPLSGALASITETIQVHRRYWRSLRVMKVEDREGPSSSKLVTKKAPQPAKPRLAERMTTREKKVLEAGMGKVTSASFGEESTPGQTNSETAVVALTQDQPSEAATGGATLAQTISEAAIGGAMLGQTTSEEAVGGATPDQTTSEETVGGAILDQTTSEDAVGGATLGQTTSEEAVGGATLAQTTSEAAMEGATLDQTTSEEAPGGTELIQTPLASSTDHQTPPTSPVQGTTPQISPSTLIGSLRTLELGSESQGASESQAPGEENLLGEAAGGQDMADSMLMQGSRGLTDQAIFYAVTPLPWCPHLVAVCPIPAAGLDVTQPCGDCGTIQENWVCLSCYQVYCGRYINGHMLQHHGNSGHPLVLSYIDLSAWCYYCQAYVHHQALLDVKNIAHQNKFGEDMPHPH

imMKCL [1] = test: HDAC6 inhibitor addition in shaking flask culture: number of platelets; type: cell-based, human; conditions: for number of platelets produced: added in a concentration of 100 nM or more to a medium
Procedure: After turning genes (c-MYC, BMI1, and BCL-XL) off, 1×10^5 cells/ml of imMKCL was seeded in a flask to carry out shaking flask culture using a platelet producing medium. The culture was carried out under the shaking conditions of 100 rpm, 37° C., and 5% CO2. To the platelet producing medium, BML-281 1 nM, 10 nM, or 100 nM, or Nexturastat A 20 nM was added as an HDAC6 inhibitor at the time of starting the culture. […] The number of platelets was measured on Day 6 after addition of these HDAC6 inhibitors.
(§1) After turning genes (c-MYC, BMI1, and BCL-XL) off, 1×10^5 cells/ml of imMKCL was seeded in a flask to carry out shaking flask culture using a platelet producing medium under a shaking condition of 100 rpm. Further, after turning genes (c-MYC, BMI1, and BCL-XL) off, 1×10^5 cells/ml of imMKCL was seeded in a culture dish to carry out static culture. For both shaking culture and static culture, BML-281 100 nM, or Nexturastat A 500 nM, 1 μM, or 2 μM was added at the time of starting the cultures. The number of platelets was measured on Day 6 from addition of these HDAC6 inhibitors. Additionally, Annexin V positive ratios of the obtained platelets were measured.
(§2) Subsequently, in order to examine in more detail which process in megakaryocyte maturation is affected by the HDAC6 inhibitor, the timing of adding Nexturastat A 2 μM during the flask culture was changed to Day 3, Day 4, and Day 5 from the start of the culture after the gene off and the effect on the amount of platelets to be produced was studied. Culture conditions other than the timing of adding HDAC6 inhibitors were the same as those in the experiment referring to FIGS. 21 to 24. […] In FIG. 24, panel (c), PPF was recognized at Day 5 in static culture. In view of this, the effect available at the time of shedding platelets (presumed mechanism) seems to be about 40%.

imMKCL [2] = test: HDAC6 inhibitor addition in static culture: cell morphology by microscope; type: cell-based, human; conditions: for degree of hypertrophy: versus DMSO group; for cell morphology (apoptosis, hypertrophy): Day 3 from gene off; for PPF associated with megakaryocyte maturation: Day 5 from gene off
Procedure: To confirm if apoptosis was caused due to the drug addition, cell morphology was observed when dimethyl sulfoxide (DMSO) was used as a solvent control of the drug or an HDAC6 inhibitor was added at the time of starting the culture in the platelet producing medium in a static culture under the same conditions as above. […] In the photograph, cell hypertrophy associated with megakaryocyte maturation is observed. […] PPF associated with megakaryocyte maturation is recognized. FIG. 24, panels (e) and (f) show cell morphology on Day 5 from the gene off static culture to which BML-281 100 nM was added and to which Nexturastat A 2 μM was added, respectively. […] Additionally, when an HDAC6 inhibitor was added, the degree of megakaryocyte maturation is rather hindered but proceeds to hypertrophy. Based on the above findings, HDAC6, seems to have role in the proplatelet formation.

imMKCL [3] = test: HDAC6 inhibitor addition in static culture (Dish): number of platelets; type: cell-based, human
Procedure: as §1, §2

| Structure (SMILES) | known HDAC inhibition (HDAC6) | number of platelets produced (imMKCL [1]) | platelet production (number of platelets on Day 6) (imMKCL [1]; shaking flask culture, 100 nM added at start of culture) | degree of hypertrophy (imMKCL [2]; Day 3, 100 nM) | cell morphology (apoptosis, hypertrophy) (imMKCL [2]; 100 nM) | PPF associated with megakaryocyte maturation (imMKCL [2]; 100 nM) | reduction of number of platelets produced (imMKCL [3]; static culture (Dish), 2 μM added on Day 5) | number of platelets produced on Day 6, concentration dependence (imMKCL [3]; static culture, 500 nM, 1 μM, or 2 μM added at start) | number of platelets produced on Day 6, concentration dependence (imMKCL [1]; shaking flask culture, 500 nM, 1 μM, or 2 μM added at start) | platelet production (number of platelets on Day 6) (imMKCL [1]; shaking flask culture, 2 μM added) | platelet production (imMKCL [1]; shaking flask culture, 2 μM added on Day 0 or Days 3 and 4 after gene off) | platelet production (imMKCL [1]; shaking flask culture, 2 μM added on Day 5 after gene off) | degree of hypertrophy (imMKCL [2]; Day 3, 2 μM) | cell morphology (apoptosis, hypertrophy) (imMKCL [2]; 2 μM) | PPF associated with megakaryocyte maturation (imMKCL [2]; 2 μM) |
| --- | --- | --- | --- | --- | --- | --- | --- | --- | --- | --- | --- | --- | --- | --- | --- |
| CC(C)(C)OC(=O)Nc1ccc(-c2cc(C(=O)NCCCCCCC(=O)NO)no2)cc1 [BML-281, N-Hydroxy-7-[5-(4-tertbutoxycarbonylaminophenyl)-3-isoxazolecarboxamido]heptanamide] | inhibit HDAC6, 1, 2, 7, 8, and 10 | considerably suppress the number of platelets produced | notable reduction in the platelet production | slightly lower than the group containing DMSO | Apoptosis is not recognized but cell hypertrophy is recognized | not recognized | – | – | – | – | – | – | – | – | – |
| CCCCN(Cc1ccc(C(=O)NO)cc1)C(=O)Nc1ccccc1 [Nexturastat A, 4-[[Butyl[(phenylamino)carbonyl]amino]methyl]-N-hydroxybenzamide] | specifically inhibit HDAC6 | considerably suppress the number of platelets produced | – | – | – | – | about 40% | decreases in an inhibitor concentration-dependent manner | decreases in an inhibitor concentration-dependent manner | notable reduction in the platelet production | notable reduction in the platelet production | production equivalent to that in non-addition group | slightly lower than the group containing DMSO | Apoptosis was not recognized but cell hypertrophy was observed | not recognized |
